Experiments:
[1] = Stability (50° C., 40° C./75% RH, light; 1 week); format: physicochemical; details: for XRPD change? / purity: bulk, 1 week
Description: The stability of the free base 1 and the selected salts 8, 9, 10, and 11 was evaluated. For each material, aliquots were set up at each of conditions (50° C., 40° C./75% RH, light) at given time points (initial and 1 week). PXRD diffractograms of the hydrogen fumarate salt 11 is shown in FIG. 17, with trace (a) showing the initial salt, trace (b) showing the salt after light treatment, trace (c) showing the salt after storage at 40° C. and 75% relative humidity for 1 week, and (d) showing the salt after storage at 50° C. for 1 week.

[2] = Particle size distribution of hydrogen fumarate salt 11; format: physicochemical; details: for D-value: in µm (unit assumed)
Description: VMD=[…]; STD=[…]; Duration=0.04; Copt=2.90.

What does the source list for `CC(C)c1nc(-c2cnc(N)c(OC(F)(F)F)c2)cn1C12CC(N3CCOCC3)(C1)C2.O=C(O)/C=C/C(=O)O` [Example 11, 5-(2-isopropyl-1-(3-morpholinobicyclo[1.1.1]pentan-1-yl)-1H-imidazol-4-yl)-3-(trifluoromethoxy)pyridin-2-amine hydrogen fumarate]?
XRPD change? ([1]; 40° C., 75% RH): no; purity ([1]; 40° C., 75% RH): 99.88%; XRPD change? ([1]; 50° C.): no; purity ([1]; 50° C.): 99.89%; initial purity ([1]; initial (before storage)): 99.85%; XRPD change? ([1]; light): no; purity ([1]; light): 99.89%; PSD D90 ([2]; 8500 mg scale-up batch): D90 = 43 uM; D-value ([2]; % level 5): 1.20; D-value ([2]; % level 10): 2.21; D-value ([2]; % level 15): 3.64; D-value ([2]; % level 20): 5.39; D-value ([2]; % level 25): 7.16; D-value ([2]; % level 30): 8.89; D-value ([2]; % level 35): 10.58; D-value ([2]; % level 40): 12.28; D-value ([2]; % level 45): 14.04; D-value ([2]; % level 50): 15.88; D-value ([2]; % level 55): 17.79; D-value ([2]; % level 60): 19.93; D-value ([2]; % level 65): 22.30; D-value ([2]; % level 70): 24.85; D-value ([2]; % level 75): 28.06; D-value ([2]; % level 80): 31.79; D-value ([2]; % level 85): 36.34; D-value ([2]; % level 90): 42.91; D-value ([2]; % level 95): 54.73
